Data taken from the supplement of paper PMC11061612.

Legend:
Experiment in all cases: Bliss excess, mean over the matrix (fraction); higher = more synergy
MSTO-211H (Mesothelioma) = test system: MSTO-211H (Mesothelioma)
Method in brief: (§1)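 After 24 hours at 37°C and 5% CO2 in 1536-well plates, cells in DMEM/F12 or RPMI plus 10% FBS received two-drug dose matrices for 72 hours. Viability came from CellTiter-Glo 2.0 luminescence and was scaled as inhibition, anchored at 0 by vehicle wells and at 1 by blank wells. Combination Emax is taken as the second-highest inhibition in the matrix, and Bliss excess as the observed combination effect less EA + EB − EA·EB, with EA and EB the single-agent effects.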

CS1 (Chondrosarcoma) = test system: CS1 (Chondrosarcoma)
Method in brief: as §1

[1] = test system: P31-FUJ (Acute Myeloid Leukemia)
Method in brief: as §1

[2] = test system: SLVL (B-Cell Non-Hodgkin's Lymphoma)
Method in brief: as §1

[3] = test system: JHH-6 (Hepatocellular Carcinoma)
Method in brief: as §1

[4] = test system: MEG-01 (Chronic Myelogenous Leukemia)
Method in brief: as §1

H4 (Low Grade Glioma) = test system: H4 (Low Grade Glioma)
Method in brief: as §1

[5] = test system: HOP-92 (Non-Small Cell Lung Carcinoma)
Method in brief: as §1

[6] = test system: EKVX (Non-Small Cell Lung Carcinoma)
Method in brief: as §1

[7] = test system: BICR78 (Oral Cavity Carcinoma)
Method in brief: as §1

[8] = test system: WSU-DLCL2 (B-Cell Non-Hodgkin's Lymphoma)
Method in brief: as §1

[9] = test system: SNU-61 (Colorectal Carcinoma)
Method in brief: as §1

[10] = test system: HCT-116 (Colorectal Carcinoma)
Method in brief: as §1

A172 (Glioblastoma) = test system: A172 (Glioblastoma)
Method in brief: as §1

[11] = test system: HCC-827 (Lung Adenocarcinoma)
Method in brief: as §1

[12] = test system: 647-V (Bladder Carcinoma)
Method in brief: as §1

[13] = test system: SNG-M (Endometrial Carcinoma)
Method in brief: as §1

[14] = test system: TYK-nu (Ovarian Carcinoma)
Method in brief: as §1

[15] = test system: EFM-192A (Breast Carcinoma)
Method in brief: as §1

[16] = test system: SK-UT-1 (Other Solid Carcinomas)
Method in brief: as §1

SMILES	Bliss excess (MSTO-211H (Mesothelioma))	Bliss excess (CS1 (Chondrosarcoma))	Bliss excess [1]	Bliss excess [2]	Bliss excess [3]	Bliss excess [4]	Bliss excess (H4 (Low Grade Glioma))	Bliss excess [5]	Bliss excess [6]	Bliss excess [7]	Bliss excess [8]	Bliss excess [9]	Bliss excess [10]	Bliss excess (A172 (Glioblastoma))	Bliss excess [11]	Bliss excess [12]	Bliss excess [13]	Bliss excess [14]	Bliss excess [15]	Bliss excess [16]
CN(CCO)CC[C@H](CSc1ccccc1)Nc1ccc(S(=O)(=O)NC(=O)c2ccc(N3CCC([C@@H](O)c4ccccc4-c4ccc(Cl)cc4)CC3)cc2)cc1S(=O)(=O)C(F)(F)F [AZD4320] + Cn1cnc2c(F)c(Nc3ccc(Br)cc3Cl)c(C(=O)NOCCO)cc21 [Selumetinib] (first compound max 1 µM, 7x7, partner max 3 µM)	0.0146	-0.0054	0.125	-0.401	0.0455	0.0005	-0.0002	-0.0341	0.0109	0.0362	0.0155	0.0604	-0.0232	-0.0071	-0.0011	0.0631	0.0038	-0.0839	–	–
NC1(C(=O)N[C@@H](CCO)c2ccc(Cl)cc2)CCN(c2ncnc3[nH]ccc23)CC1 [Capivasertib] + Cn1cnc2c(F)c(Nc3ccc(Br)cc3Cl)c(C(=O)NOCCO)cc21 [Selumetinib] (first compound max 10 µM, 7x7, partner max 10 µM)	0.0663	0.0373	0.0376	-0.0251	-0.0262	0.0548	-0.0307	0.003	–	-0.0016	-0.0006	0.025	0.0512	-0.008	0.04	-0.0134	0.0648	0.0219	-0.0326	0.0843
Cc1nc(Nc2ncc(C(=O)Nc3c(C)cccc3Cl)s2)cc(N2CCN(CCO)CC2)n1 [Dasatinib] + CC(=O)Nc1cccc(-n2c(=O)n(C3CC3)c(=O)c3c(Nc4ccc(I)cc4F)n(C)c(=O)c(C)c32)c1 [Trametinib] (first compound max 2 µM, 7x7, partner max 1 µM)	-0.001	-0.022	0.108	-0.147	0.0847	0.0019	-0.0488	0.113	–	-0.0401	0.101	0.0295	0.0991	-0.0823	-0.0114	-0.002	-0.0097	0.0895	-0.0545	-0.0255
COc1cc2ncnc(Nc3ccc(F)c(Cl)c3)c2cc1OCCCN1CCOCC1 [Gefitinib] + CC(C)n1c(=O)n(C)c2cnc3cc(F)c(-c4ccc(OCCCN5CCCCC5)nc4)cc3c21 [AZD1390] (first compound max 10 µM, 7x7, partner max 0.3 µM)	-0.0571	-0.0466	-0.0201	-0.0591	-0.0603	-0.058	-0.0806	-0.0439	–	-0.0788	0.0143	-0.0929	-0.0453	-0.0554	-0.0613	-0.0735	-0.109	-0.0851	-0.0752	-0.0319
CS(=O)(=O)CCNCc1ccc(-c2ccc3ncnc(Nc4ccc(OCc5cccc(F)c5)c(Cl)c4)c3c2)o1 [Lapatinib] + C[C@@H](Oc1cc(-c2cnn(C3CCNCC3)c2)cnc1N)c1c(Cl)ccc(F)c1Cl [Crizotinib] (first compound max 10 µM, 7x7, partner max 10 µM)	-0.0667	-0.0093	-0.142	-0.0518	-0.0262	-0.0083	0.002	-0.0051	–	0.0073	-0.0162	0.0198	-0.0748	-0.0564	-0.038	0.0097	-0.0413	-0.0403	0.0063	-0.0392
CC(=O)c1c(C)c2cnc(Nc3ccc(N4CCNCC4)cn3)nc2n(C2CCCC2)c1=O [Palbociclib] + CC1(C)CCC(CN2CCN(c3ccc(C(=O)NS(=O)(=O)c4ccc(NCC5CCOCC5)c([N+](=O)[O-])c4)c(Oc4cnc5[nH]ccc5c4)c3)CC2)=C(c2ccc(Cl)cc2)C1 [Venetoclax] (first compound max 10 µM, 7x7, partner max 1 µM)	-0.0922	-0.0457	-0.073	-0.0892	-0.0461	-0.0096	0.0013	-0.0166	–	-0.0611	0.0277	-0.0361	-0.0285	-0.003	-0.0379	-0.0439	-0.0501	-0.0026	-0.0115	-0.0343
CC(=O)c1c(C)c2cnc(Nc3ccc(N4CCNCC4)cn3)nc2n(C2CCCC2)c1=O [Palbociclib] + Cc1c2c(nn1C)CSCc1cc(n(C)n1)CSc1cc(c3ccccc3c1)OCCCc1c(C(=O)O)n(C)c3c-2c(Cl)ccc13 [AZD5991] (first compound max 10 µM, 7x7, partner max 1 µM)	-0.0265	-0.035	-0.11	-0.0393	-0.0212	0.0338	-0.0371	0.013	–	-0.0375	-0.0052	-0.0371	-0.0075	-0.0589	-0.0324	-0.0442	-0.0233	-0.0289	-0.119	0.0096
CC(=O)c1c(C)c2cnc(Nc3ccc(N4CCNCC4)cn3)nc2n(C2CCCC2)c1=O [Palbociclib] + Cn1cnc2c(F)c(Nc3ccc(Br)cc3Cl)c(C(=O)NOCCO)cc21 [Selumetinib] (first compound max 10 µM, 7x7, partner max 10 µM)	-0.0714	0.0219	0.0152	-0.0355	0.0291	0.0404	0.0308	0.0142	–	0.0133	-0.0194	0.0179	0.0697	0.0031	-0.0172	-0.035	-0.117	-0.065	-0.0289	-0.033
CCc1c2c(nc3ccc(O)cc13)-c1cc3c(c(=O)n1C2)COC(=O)[C@]3(O)CC [SN-38] + O=C(c1cc(Cc2n[nH]c(=O)c3ccccc23)ccc1F)N1CCN(C(=O)C2CC2)CC1 [Olaparib] (first compound max 0.3 µM, 7x7, partner max 10 µM)	0.0376	0.0141	0.0648	0.0327	0.032	0.026	0.0958	–	0.0027	0.0587	0.0564	–	0.104	0.0639	0.052	–	0.0565	-0.0067	–	0.057
C[C@@H](c1ccc2nccn2c1)n1nnc2ncc(-c3cnn(C)c3)nc21 [Savolitinib] + CC1(C)CCC(CN2CCN(c3ccc(C(=O)NS(=O)(=O)c4ccc(NCC5CCOCC5)c([N+](=O)[O-])c4)c(Oc4cnc5[nH]ccc5c4)c3)CC2)=C(c2ccc(Cl)cc2)C1 [Venetoclax] (first compound max 1 µM, 7x7, partner max 1 µM)	-0.0501	-0.0056	-0.102	-0.0904	-0.0918	-0.0223	-0.0399	-0.0181	–	-0.0779	0.113	-0.0709	-0.0357	-0.0498	-0.0293	-0.057	-0.0421	-0.0478	-0.0484	-0.0234
C[C@@H](c1ccc2nccn2c1)n1nnc2ncc(-c3cnn(C)c3)nc21 [Savolitinib] + Cc1c2c(nn1C)CSCc1cc(n(C)n1)CSc1cc(c3ccccc3c1)OCCCc1c(C(=O)O)n(C)c3c-2c(Cl)ccc13 [AZD5991] (first compound max 1 µM, 7x7, partner max 1 µM)	-0.0337	-0.031	-0.049	-0.0946	-0.0727	-0.0308	0.0076	-0.0338	–	-0.0214	0.0276	-0.0429	-0.0593	-0.0747	-0.008	-0.0594	0.0124	-0.0393	-0.0499	0.0093
Cn1cnc2c(F)c(Nc3ccc(Br)cc3Cl)c(C(=O)NOCCO)cc21 [Selumetinib] + C=CCn1c(=O)c2cnc(Nc3ccc(N4CCN(C)CC4)cc3)nc2n1-c1cccc(C(C)(C)O)n1 [AZD1775] (first compound max 10 µM, partner max 1 µM)	-0.0323	-0.0195	-0.0064	-0.0275	-0.0963	0.0437	-0.0797	-0.056	–	-0.0678	-0.0064	-0.0358	-0.0286	-0.126	-0.026	-0.0359	-0.0444	-0.0404	-0.0509	-0.0042
Cn1cnc2c(F)c(Nc3ccc(Br)cc3Cl)c(C(=O)NOCCO)cc21 [Selumetinib] + CC(C)n1c(=O)n(C)c2cnc3cc(F)c(-c4ccc(OCCCN5CCCCC5)nc4)cc3c21 [AZD1390] (first compound max 10 µM, 7x7, partner max 0.3 µM)	-0.0367	-0.0172	0.0398	-0.0557	-0.0769	0.0034	-0.0503	-0.0112	–	0.0116	-0.003	0.0043	-0.0129	-0.0389	-0.0306	-0.0481	-0.0348	-0.0523	-0.0325	-0.0066
Cn1cnc2c(F)c(Nc3ccc(Br)cc3Cl)c(C(=O)NOCCO)cc21 [Selumetinib] + CCN(CCO)CCCOc1ccc2c(Nc3cc(CC(=O)Nc4cccc(F)c4)[nH]n3)ncnc2c1 [AZD2811] (first compound max 10 µM, 7x7, partner max 1 µM)	-0.0137	-0.0043	-0.0136	-0.0465	-0.0305	-0.0001	-0.0091	-0.0193	–	0.0275	-0.0019	-0.0026	0.0289	-0.0731	-0.0711	-0.0038	-0.0706	-0.0169	-0.0285	0.0021
Cn1cnc2c(F)c(Nc3ccc(Br)cc3Cl)c(C(=O)NOCCO)cc21 [Selumetinib] + C[C@@H]1COCCN1C2=NC(=NC(=C2)C3(CC3)[S@](=N)(=O)C)C4=C5C=CNC5=NC=C4 [AZD6738] (first compound max 10 µM, 7x7, partner max 10 µM)	-0.0453	-0.0706	-0.0802	-0.107	-0.0064	0.0135	-0.0067	-0.0029	–	-0.001	-0.0228	0.065	-0.0093	-0.0564	-0.0172	0.0218	-0.0561	0.089	-0.0365	-0.0511
